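Where inhibition never reached the appropriate level, the endpoint shown equals the highest concentration tested. Otherwise, values were interpolated linearly from a five-concentration, 48-hour dose response in 96-well plates. At the GI50, growth is halved.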 Activity calls are given as the source filed them. No stated cut-off is given here; in the data, active = GI50 up to about 1.1 µM and inactive = higher.
Columns and labels:
Test in all cases: inhibition of tumour cell growth, NCI panel, 48 h
T47D = system: T47D
Hs-578T = system: Hs-578T
786-0 = system: 786-0
SNB-75 = system: SNB-75
OVCAR-8 = system: OVCAR-8
RPMI-8226 = system: RPMI-8226
SF-295 = system: SF-295
SK-MEL-2 = system: SK-MEL-2
NCI-H23 = system: NCI-H23
OVCAR-5 = system: OVCAR-5
SR = system: SR
M14 = system: M14
A549 = system: A549
TK-10 = system: TK-10
SK-OV-3 = system: SK-OV-3
KM12 = system: KM12
DU-145 = system: DU-145
HL-60 = system: HL-60
HT-29 = system: HT-29
HCT-116 = system: HCT-116
CCRF-CEM = system: CCRF-CEM
K562 = system: K562
HCC 2998 = system: HCC 2998
PC-3 = system: PC-3
OVCAR-3 = system: OVCAR-3
NCI-H460 = system: NCI-H460
A498 = system: A498
COLO 205 = system: COLO 205
ACHN = system: ACHN
SK-MEL-5 = system: SK-MEL-5
NCI-H522 = system: NCI-H522
HOP-92 = system: HOP-92
U-251 = system: U-251
IGROV-1 = system: IGROV-1
EKVX = system: EKVX
Malme-3M = system: Malme-3M
BT-549 = system: BT-549
LOX IMVI = system: LOX IMVI
UACC-257 = system: UACC-257
NCI/ADR-RES = system: NCI/ADR-RES
CAKI-1 = system: CAKI-1
MDA-N = system: MDA-N
UO-31 = system: UO-31
UACC-62 = system: UACC-62
MDA-MB-435 = system: MDA-MB-435
OVCAR-4 = system: OVCAR-4
SF-539 = system: SF-539
HOP-62 = system: HOP-62
MDA-MB-231 = system: MDA-MB-231
NCI-H226 = system: NCI-H226
HCT-15 = system: HCT-15
SK-MEL-28 = system: SK-MEL-28
MCF7 = system: MCF7
SN12C = system: SN12C
SNB-19 = system: SNB-19
SW-620 = system: SW-620
MOLT-4 = system: MOLT-4
SF-268 = system: SF-268
RXF 393 = system: RXF 393

Structure (SMILES): COc1ccc(S(=O)(=O)NC(CCC(=O)NC(N)=O)C(=O)NC(N)=O)cc1 (stereo not given)
- GI50 (T47D): > 100000 nM (inactive)
- GI50 (Hs-578T): > 100000 nM (inactive)
- GI50 (786-0): > 100000 nM (inactive)
- GI50 (SNB-75): > 100000 nM (inactive)
- GI50 (OVCAR-8): > 100000 nM (inactive)
- GI50 (RPMI-8226): > 100000 nM (inactive)
- GI50 (SF-295): > 100000 nM (inactive)
- GI50 (SK-MEL-2): > 100000 nM (inactive)
- GI50 (NCI-H23): > 100000 nM (inactive)
- GI50 (OVCAR-5): > 100000 nM (inactive)
- GI50 (SR): > 100000 nM (inactive)
- GI50 (M14): > 100000 nM (inactive)
- GI50 (A549): > 100000 nM (inactive)
- GI50 (TK-10): > 100000 nM (inactive)
- GI50 (SK-OV-3): > 100000 nM (inactive)
- GI50 (KM12): > 100000 nM (inactive)
- GI50 (DU-145): > 100000 nM (inactive)
- GI50 (HL-60): 74500 nM (inactive)
- GI50 (HT-29): > 100000 nM (inactive)
- GI50 (HCT-116): > 100000 nM (inactive)
- GI50 (CCRF-CEM): > 100000 nM (inactive)
- GI50 (K562): > 100000 nM (inactive)
- GI50 (HCC 2998): > 100000 nM (inactive)
- GI50 (PC-3): > 100000 nM (inactive)
- GI50 (OVCAR-3): > 100000 nM (inactive)
- GI50 (NCI-H460): > 100000 nM (inactive)
- GI50 (A498): > 100000 nM (inactive)
- GI50 (COLO 205): > 100000 nM (inactive)
- GI50 (ACHN): > 100000 nM (inactive)
- GI50 (SK-MEL-5): > 100000 nM (inactive)
- GI50 (NCI-H522): > 100000 nM (inactive)
- GI50 (HOP-92): > 100000 nM (inactive)
- GI50 (U-251): > 100000 nM (inactive)
- GI50 (IGROV-1): > 100000 nM (inactive)
- GI50 (EKVX): > 100000 nM (inactive)
- GI50 (Malme-3M): > 100000 nM (inactive)
- GI50 (BT-549): > 100000 nM (inactive)
- GI50 (LOX IMVI): > 100000 nM (inactive)
- GI50 (UACC-257): > 100000 nM (inactive)
- GI50 (NCI/ADR-RES): > 100000 nM (inactive)
- GI50 (CAKI-1): > 100000 nM (inactive)
- GI50 (MDA-N): > 100000 nM (inactive)
- GI50 (UO-31): > 100000 nM (inactive)
- GI50 (UACC-62): > 100000 nM (inactive)
- GI50 (MDA-MB-435): > 100000 nM (inactive)
- GI50 (OVCAR-4): > 100000 nM (inactive)
- GI50 (SF-539): > 100000 nM (inactive)
- GI50 (HOP-62): > 100000 nM (inactive)
- GI50 (MDA-MB-231): > 100000 nM (inactive)
- GI50 (NCI-H226): > 100000 nM (inactive)
- GI50 (HCT-15): > 100000 nM
- GI50 (SK-MEL-28): > 100000 nM (inactive)
- GI50 (MCF7): > 100000 nM (inactive)
- GI50 (SN12C): > 100000 nM (inactive)
- GI50 (SNB-19): > 100000 nM (inactive)
- GI50 (SW-620): > 100000 nM (inactive)
- GI50 (MOLT-4): > 100000 nM (inactive)

Structure (SMILES): [O-]c1c2cc(-[n+]3c(-c4ccccc4)cc(-c4ccccc4)cc3-c3ccccc3)cc1CO[C@@H](c1ccccc1)[C@H](c1ccccc1)OCc1cccc(n1)CO[C@@H](c1ccccc1)[C@H](c1ccccc1)OC2
- GI50 (T47D): 111 nM (active)
- GI50 (Hs-578T): 676 nM (active)
- GI50 (786-0): 76.4 nM (active)
- GI50 (SNB-75): 68.2 nM (active)
- GI50 (OVCAR-8): 48.8 nM (active)
- GI50 (RPMI-8226): 13.5 nM (active)
- GI50 (SF-295): 102 nM (active)
- GI50 (SK-MEL-2): 56.9 nM (active)
- GI50 (NCI-H23): 56.9 nM (active)
- GI50 (OVCAR-5): 514 nM (active)
- GI50 (SR): 35 nM (active)
- GI50 (M14): 161 nM (active)
- GI50 (A549): 53.6 nM (active)
- GI50 (TK-10): 594 nM (active)
- GI50 (SK-OV-3): 77.5 nM (active)
- GI50 (KM12): 38.3 nM (active)
- GI50 (DU-145): 326 nM (active)
- GI50 (HL-60): 21.5 nM (active)
- GI50 (HT-29): 31.8 nM (active)
- GI50 (HCT-116): 28.6 nM (active)
- GI50 (CCRF-CEM): 31.4 nM (active)
- GI50 (K562): 29.3 nM (active)
- GI50 (HCC 2998): 453 nM (active)
- GI50 (SF-268): 68.9 nM (active)
- GI50 (PC-3): 37.3 nM (active)
- GI50 (OVCAR-3): 29.9 nM (active)
- GI50 (NCI-H460): 56 nM (active)
- GI50 (A498): 867 nM (active)
- GI50 (COLO 205): 25.9 nM (active)
- GI50 (ACHN): 304 nM (active)
- GI50 (SK-MEL-5): 42.4 nM (active)
- GI50 (NCI-H522): 35.3 nM (active)
- GI50 (HOP-92): 32.2 nM (active)
- GI50 (U-251): 28.5 nM (active)
- GI50 (IGROV-1): 38.8 nM (active)
- GI50 (EKVX): 83.8 nM (active)
- GI50 (Malme-3M): 36.3 nM (active)
- GI50 (BT-549): 57 nM (active)
- GI50 (LOX IMVI): 49.8 nM (active)
- GI50 (RXF 393): 219 nM (active)
- GI50 (UACC-257): 80.3 nM (active)
- GI50 (NCI/ADR-RES): 1970 nM (inactive)
- GI50 (CAKI-1): 367 nM (active)
- GI50 (MDA-N): 54.8 nM (active)
- GI50 (UO-31): 625 nM (active)
- GI50 (UACC-62): 93.1 nM (active)
- GI50 (MDA-MB-435): 50.1 nM (active)
- GI50 (OVCAR-4): 90 nM (active)
- GI50 (SF-539): 371 nM (active)
- GI50 (HOP-62): 169 nM (active)
- GI50 (MDA-MB-231): 160 nM (active)
- GI50 (HCT-15): 740 nM
- GI50 (SK-MEL-28): 713 nM (active)
- GI50 (MCF7): 38.8 nM (active)
- GI50 (SN12C): 37.8 nM (active)
- GI50 (SNB-19): 51.4 nM (active)
- GI50 (SW-620): 56.8 nM (active)
- GI50 (MOLT-4): 52.6 nM (active)
